From patent publication US9611267B2, “Substituted tricyclic compounds as FGFR inhibitors” (Incyte Corporation, priority 2012, dated 2017)

Tests used:
Format in all cases: biochemical
[1] = target: FGFR3 (Homo sapiens (Human), UniProt P22607); experiment: FGFR enzymatic assay (FRET peptide phosphorylation), FGFR3; conditions: FGFR3 enzyme (Millipore), ATP 140 μM
In short: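 After 5-10 min pre-incubation of FGFR3 with serially diluted compound in pH 7.5 HEPES/MgCl2/EGTA/DTT buffer, the reaction proceeded 1 hr at 25° C. Phosphorylated peptide was detected by FRET, and IC50 was fitted with a variable-slope sigmoid.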

[2] = target: FGFR2 (Homo sapiens (Human), UniProt P21802); experiment: FGFR enzymatic assay (FRET peptide phosphorylation), FGFR2; conditions: FGFR2 enzyme 0.01 nM, ATP 100 μM
Chain of FGFR2 (P21802 22-821): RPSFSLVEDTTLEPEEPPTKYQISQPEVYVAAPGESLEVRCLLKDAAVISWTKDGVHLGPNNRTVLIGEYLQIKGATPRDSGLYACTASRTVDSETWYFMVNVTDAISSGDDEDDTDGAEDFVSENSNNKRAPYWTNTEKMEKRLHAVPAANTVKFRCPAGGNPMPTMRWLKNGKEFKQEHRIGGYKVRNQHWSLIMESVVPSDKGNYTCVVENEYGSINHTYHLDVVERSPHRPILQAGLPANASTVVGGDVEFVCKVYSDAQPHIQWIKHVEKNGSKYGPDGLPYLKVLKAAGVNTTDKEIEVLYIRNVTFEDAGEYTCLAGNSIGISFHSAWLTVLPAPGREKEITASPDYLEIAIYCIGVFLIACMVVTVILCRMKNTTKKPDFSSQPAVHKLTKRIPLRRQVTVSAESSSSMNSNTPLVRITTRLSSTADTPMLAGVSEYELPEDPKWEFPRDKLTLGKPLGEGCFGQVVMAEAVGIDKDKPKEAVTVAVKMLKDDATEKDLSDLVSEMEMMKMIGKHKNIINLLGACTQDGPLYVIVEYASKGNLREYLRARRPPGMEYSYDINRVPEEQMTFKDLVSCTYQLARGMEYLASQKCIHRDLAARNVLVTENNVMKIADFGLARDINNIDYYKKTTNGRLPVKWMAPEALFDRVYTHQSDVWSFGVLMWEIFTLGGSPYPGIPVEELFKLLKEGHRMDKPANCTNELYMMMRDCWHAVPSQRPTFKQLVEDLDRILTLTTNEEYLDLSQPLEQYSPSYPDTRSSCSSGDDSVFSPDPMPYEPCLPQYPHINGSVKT
In short: (§1)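 IC50 values were obtained from variable-slope sigmoidal dose-response fitting of a FRET read-out of peptide phosphorylation. The buffer, described for FGFR3, was 50 mM HEPES pH 7.5 with MgCl2, EGTA, Tween-20 and DTT.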

[3] = target: FGFR1 (Homo sapiens (Human), UniProt P11362); experiment: FGFR enzymatic assay (FRET peptide phosphorylation), FGFR1; conditions: FGFR1 enzyme 0.02 nM, ATP 210 μM
Chain of FGFR1 (P11362 22-822): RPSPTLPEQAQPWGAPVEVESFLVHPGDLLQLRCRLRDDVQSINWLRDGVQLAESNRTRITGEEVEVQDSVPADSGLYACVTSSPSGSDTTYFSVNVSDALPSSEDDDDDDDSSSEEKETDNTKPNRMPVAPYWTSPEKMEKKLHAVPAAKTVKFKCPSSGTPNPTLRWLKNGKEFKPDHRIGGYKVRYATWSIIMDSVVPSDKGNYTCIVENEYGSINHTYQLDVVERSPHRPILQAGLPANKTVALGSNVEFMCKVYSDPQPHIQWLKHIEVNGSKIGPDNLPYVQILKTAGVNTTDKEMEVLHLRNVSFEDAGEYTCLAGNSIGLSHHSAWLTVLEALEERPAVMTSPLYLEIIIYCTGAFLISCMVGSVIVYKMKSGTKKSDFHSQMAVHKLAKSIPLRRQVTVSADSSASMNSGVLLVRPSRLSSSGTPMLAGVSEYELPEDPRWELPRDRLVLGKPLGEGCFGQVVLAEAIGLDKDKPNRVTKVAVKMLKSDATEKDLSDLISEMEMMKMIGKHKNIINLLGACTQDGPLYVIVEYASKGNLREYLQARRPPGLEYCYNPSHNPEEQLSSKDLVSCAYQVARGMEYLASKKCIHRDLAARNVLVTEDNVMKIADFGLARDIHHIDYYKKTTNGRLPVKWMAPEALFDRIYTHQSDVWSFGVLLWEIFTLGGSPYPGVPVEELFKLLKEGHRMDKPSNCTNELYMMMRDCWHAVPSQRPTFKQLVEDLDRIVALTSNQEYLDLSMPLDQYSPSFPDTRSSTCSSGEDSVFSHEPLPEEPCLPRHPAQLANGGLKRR
In short: as §1

Measured: IC50

Chain of FGFR3 (P22607 23-806): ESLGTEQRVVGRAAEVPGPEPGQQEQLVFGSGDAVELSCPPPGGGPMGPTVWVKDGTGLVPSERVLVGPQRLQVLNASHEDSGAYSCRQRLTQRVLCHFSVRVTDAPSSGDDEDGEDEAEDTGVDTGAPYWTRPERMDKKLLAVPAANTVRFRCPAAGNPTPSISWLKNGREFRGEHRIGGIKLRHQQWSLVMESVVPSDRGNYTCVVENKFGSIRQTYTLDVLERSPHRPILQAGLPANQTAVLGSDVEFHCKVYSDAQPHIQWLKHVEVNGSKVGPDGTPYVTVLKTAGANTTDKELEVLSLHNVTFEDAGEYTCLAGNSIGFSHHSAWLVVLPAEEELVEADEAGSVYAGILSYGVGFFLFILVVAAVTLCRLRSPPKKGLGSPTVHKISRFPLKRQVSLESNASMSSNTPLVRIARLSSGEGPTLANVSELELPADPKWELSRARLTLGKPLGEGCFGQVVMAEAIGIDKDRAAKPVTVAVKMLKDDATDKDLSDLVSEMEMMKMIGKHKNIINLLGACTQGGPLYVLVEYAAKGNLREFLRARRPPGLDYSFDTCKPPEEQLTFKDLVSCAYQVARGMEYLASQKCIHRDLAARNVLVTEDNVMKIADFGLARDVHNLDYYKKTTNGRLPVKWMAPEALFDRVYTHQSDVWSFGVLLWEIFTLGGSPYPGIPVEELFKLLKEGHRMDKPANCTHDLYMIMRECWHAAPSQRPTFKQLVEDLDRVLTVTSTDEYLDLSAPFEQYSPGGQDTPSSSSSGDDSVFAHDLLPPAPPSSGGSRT

COc1cc(OC)c(F)c(N2Cc3cnc4c(c3N(c3ccc(Cl)cn3)C2=O)CC(=O)N4)c1F [Example 81, 1-(5-chloropyridin-2-yl)-3-(2,6-difluoro-3,5-dimethoxyphenyl)-3,4,7,9-tetrahydro-1H-pyrrolo[3′,2′:5,6]pyrido[4,3-d]pyrimidine-2,8-dione]
< 100 nM: all assays above

COc1cc(OC)c(F)c(N2Cc3cnc4[nH]ccc4c3N(c3cccc(C#N)c3)C2=O)c1F [Example 82, 3-[3-(2,6-difluoro-3,5-dimethoxyphenyl)-2-oxo-2,3,4,7-tetrahydro-1H-pyrrolo[3′,2′:5,6]pyrido[4,3-d]pyrimidin-1-yl]benzonitrile]
< 100 nM: all assays above

COc1cc(OC)c(F)c(N2Cc3cnc4[nH]ccc4c3N(c3cccnc3)C2=O)c1F [Example 83, 3-(2,6-difluoro-3,5-dimethoxyphenyl)-1-pyridin-3-yl-1,3,4,7-tetrahydro-2H-pyrrolo[3′,2′:5,6]pyrido[4,3-d]pyrimidin-2-one]
< 100 nM: all assays above

COc1cc(OC)c(F)c(N2Cc3cnc4[nH]ccc4c3N(c3cccc(Cl)c3F)C2=O)c1F [Example 84, 1-(3-chloro-2-fluorophenyl)-3-(2,6-difluoro-3,5-dimethoxyphenyl)-1,3,4,7-tetrahydro-2H-pyrrolo[3′,2′:5,6]pyrido[4,3-d]pyrimidin-2-one]
< 100 nM: all assays above

COc1cc(OC)c(F)c(N2Cc3cnc4[nH]ncc4c3N(c3cnn(C)c3)C2=O)c1F [Example 85, 3-(2,6-difluoro-3,5-dimethoxyphenyl)-1-(1-methyl-1H-pyrazol-4-yl)-1,3,4,7-tetrahydro-2H-pyrazolo[4′,3′:5,6]pyrido[4,3-d]pyrimidin-2-one]
< 100 nM: all assays above

COc1cc(OC)c(F)c(N2Cc3cnc4[nH]ncc4c3N(Cc3ccccn3)C2=O)c1F [Example 86, 3-(2,6-difluoro-3,5-dimethoxyphenyl)-1-(pyridin-2-ylmethyl)-1,3,4,7-tetrahydro-2H-pyrazolo[4′,3′:5,6]pyrido[4,3-d]pyrimidin-2-one]
< 100 nM: all assays above

COc1cc(OC)c(F)c(N2Cc3cnc4[nH]ncc4c3N(C3CC3)C2=O)c1F [Example 87, 1-cyclopropyl-3-(2,6-difluoro-3,5-dimethoxyphenyl)-1,3,4,7-tetrahydro-2H-pyrazolo[4′,3′:5,6]pyrido[4,3-d]pyrimidin-2-one]
< 100 nM: all assays above

COc1cc(OC)c(F)c(N2Cc3cnc4[nH]ncc4c3N([C@H]3CCCOC3)C2=O)c1F [Example 88, 3-(2,6-difluoro-3,5-dimethoxyphenyl)-1-[(3S)-tetrahydro-2H-pyran-3-yl]-1,3,4,7-tetrahydro-2H-pyrazolo[4′,3′:5,6]pyrido[4,3-d]pyrimidin-2-one]
< 100 nM: all assays above

COc1cc(OC)c(F)c(N2Cc3cnc4[nH]ncc4c3N([C@H]3CCOC3)C2=O)c1F [Example 89, 3-(2,6-difluoro-3,5-dimethoxyphenyl)-1-[(3S)-tetrahydrofuran-3-yl]-1,3,4,7-tetrahydro-2H-pyrazolo[4′,3′:5,6]pyrido[4,3-d]pyrimidin-2-one]
< 100 nM: all assays above

COc1cc(OC)c(F)c(N2Cc3cnc4[nH]ncc4c3N([C@@H]3CCOC3)C2=O)c1F [Example 90, 3-(2,6-difluoro-3,5-dimethoxyphenyl)-1-[(3R)-tetrahydrofuran-3-yl]-1,3,4,7-tetrahydro-2H-pyrazolo[4′,3′:5,6]pyrido[4,3-d]pyrimidin-2-one]
< 100 nM: all assays above

COc1cc(OC)c(F)c(N2Cc3cnc4[nH]ncc4c3N(C(C)C)C2=O)c1F [Example 91, 3-(2,6-difluoro-3,5-dimethoxyphenyl)-1-isopropyl-1,3,4,7-tetrahydro-2H-pyrazolo[4′,3′:5,6]pyrido[4,3-d]pyrimidin-2-one]
< 100 nM: all assays above

COc1cc(OC)c(F)c(N2Cc3cnc4[nH]ncc4c3N(c3ccccc3OC(F)(F)F)C2=O)c1F [Example 92, 3-(2,6-difluoro-3,5-dimethoxyphenyl)-1-[2-(trifluoromethoxy)phenyl]-1,3,4,7-tetrahydro-2H-pyrazolo[4′,3′:5,6]pyrido[4,3-d]pyrimidin-2-one]
< 100 nM: all assays above

COc1cc(OC)c(F)c(N2Cc3cnc4[nH]ncc4c3N(c3cccc(C#N)c3)C2=O)c1F [Example 93, 3-[3-(2,6-difluoro-3,5-dimethoxyphenyl)-2-oxo-2,3,4,7-tetrahydro-1H-pyrazolo[4′,3′:5,6]pyrido[4,3-d]pyrimidin-1-yl]benzonitrile]
< 100 nM: all assays above

COc1cc(OC)c(F)c(N2Cc3cnc4[nH]ncc4c3N(c3cccnc3)C2=O)c1F [Example 94, 3-(2,6-difluoro-3,5-dimethoxyphenyl)-1-pyridin-3-yl-1,3,4,7-tetrahydro-2H-pyrazolo[4′,3′:5,6]pyrido[4,3-d]pyrimidin-2-one]
< 100 nM: all assays above

COc1cc(OC)c(F)c(N2Cc3cnc4[nH]ncc4c3N(c3nnn(C)n3)C2=O)c1F [Example 95, 3-(2,6-difluoro-3,5-dimethoxyphenyl)-1-(2-methyl-2H-tetrazol-5-yl)-1,3,4,7-tetrahydro-2H-pyrazolo[4′,3′:5,6]pyrido[4,3-d]pyrimidin-2-one]
< 100 nM: all assays above

COc1cc(OC)c(F)c(N2Cc3cnc4[nH]ncc4c3N(c3cccc4cccnc34)C2=O)c1F [Example 96, 3-(2,6-difluoro-3,5-dimethoxyphenyl)-1-quinolin-8-yl-1,3,4,7-tetrahydro-2H-pyrazolo[4′,3′:5,6]pyrido[4,3-d]pyrimidin-2-one]
< 100 nM: all assays above

COc1cc(OC)c(F)c(N2Cc3cnc4[nH]nc(C)c4c3N(C3CC3)C2=O)c1F [Example 97, 1-cyclopropyl-3-(2,6-difluoro-3,5-dimethoxyphenyl)-9-methyl-1,3,4,7-tetrahydro-2H-pyrazolo[4′,3′:5,6]pyrido[4,3-d]pyrimidin-2-one]
< 100 nM: all assays above

CCN1C(=O)N(c2c(F)c(OC)cc(OC)c2F)Cc2cnc3[nH]nc(C)c3c21 [Example 98, 3-(2,6-difluoro-3,5-dimethoxyphenyl)-1-ethyl-9-methyl-1,3,4,7-tetrahydro-2H-pyrazolo[4′,3′:5,6]pyrido[4,3-d]pyrimidin-2-one]
< 100 nM: all assays above

COc1cc(OC)c(F)c(N2Cc3cnc4[nH]ncc4c3NC2=O)c1F [Example 99, 3-(2,6-difluoro-3,5-dimethoxyphenyl)-1,3,4,7-tetrahydro-2H-pyrazolo[4′,3′:5,6]pyrido[4,3-d]pyrimidin-2-one]
< 100 nM: all assays above

COc1cc(OC)c(F)c(N2Cc3cnc4[nH]nc(CCN5CCOCC5)c4c3N(C)C2=O)c1F [Example 100, 3-(2,6-difluoro-3,5-dimethoxyphenyl)-1-methyl-9-(2-morpholin-4-ylethyl)-1,3,4,7-tetrahydro-2H-pyrazolo[4′,3′:5,6]pyrido[4,3-d]pyrimidin-2-one]
< 100 nM: all assays above

COc1cc(OC)c(Cl)c(N2Cc3cnc4[nH]ncc4c3N(C3CC3)C2=O)c1F [Example 101, 3-(2-chloro-6-fluoro-3,5-dimethoxyphenyl)-1-cyclopropyl-1,3,4,7-tetrahydro-2H-pyrazolo[4′,3′:5,6]pyrido[4,3-d]pyrimidin-2-one]
< 100 nM: all assays above

COc1cc(OC)c(Cl)c(N2Cc3cnc4[nH]ncc4c3N(C3CCC3)C2=O)c1F [Example 102, 3-(2-chloro-6-fluoro-3,5-dimethoxyphenyl)-1-cyclobutyl-1,3,4,7-tetrahydro-2H-pyrazolo[4′,3′:5,6]pyrido[4,3-d]pyrimidin-2-one]
< 100 nM: all assays above

COc1cc(OC)c(F)c(N2Cc3cnc4[nH]ccc4c3NC2=O)c1F [Example 103, 3-(2,6-difluoro-3,5-dimethoxyphenyl)-1,3,4,7-tetrahydro-2H-pyrrolo[3′,2′:5,6]pyrido[4,3-d]pyrimidin-2-one]
< 100 nM: all assays above
